For one assay, the system named is S. aureus ATCC25923. The assay can be described thus: MIC by microdilution, S. aureus ATCC25923. Type of assay: cell-based, Staphylococcus aureus. The settings on record: S. aureus ATCC25923 (MecA negative, wild-type), Mueller-Hinton broth, in duplicate. The method, then:
(§1) The antibacterial profile of each derivative was evaluated by the standard microdilution method for susceptibility testing on 16 different strains, following the guidelines of CLSI. The selected panel included: • S. aureus ATCC25923 (MecA negative, wild-type) • S. aureus ATCC29213 (MecA negative, wild-type) • S. aureus ATCC700699 (MecA positive, glycopeptide resistant) • S. aureus ST20131365 (MecA positive, glycopeptide resistant) • S. epidermidis ATCC14990 (MecA negative, wild-type) • S. epidermidis ATCC35984 (MecA positive) • S. epidermidis ST20140436 (MecA positive, glycopeptide resistant) • S. epidermidis ST20150446 (MecA positive, glycopeptide resistant) • E. faecalis JH2-2 (wild-type) • E. faecalis UCN41 (VanA positive, glycopeptide resistant) • E. faecalis V583 (VanB positive, glycopeptide resistant) • E. faecium ATCC19434T (wild-type) • E. faecium BM4147 (VanA positive, glycopeptide resistant) • E. faecium AUS0004 (VanB positive, glycopeptide resistant) • E. coli ATCC25922 (wild-type) • Clostridium difficile ATCC9689 (wild-type)
(§2) Both series issued from the SAR study were evaluated for their antibacterial activity on a panel of characterized strains obtained from the French National Reference Centers for Staphylococci (Lyon, Pr. Fréderique Laurent) and for Enterococci (Caen, Pr. Vincent Cattoir), respectively. As shown in the following tables, both series contain very active compounds on multi-resistant Gram-positive bacteria (Minimal Inhibitory Concentrations lower than comparator antibiotic ampicillin). Furthermore, a very important antibacterial effect has been shown too on a strain of Clostridium difficile, a Gram-positive, spore-forming, bacillus responsible for post-antibiotic diarrhoae.
(§3) The antibacterial activity of test compounds was evaluated on a selected panel of Gram-positive (4 Staphylococcus aureus, 4 Staphylococcus epidermidis, 3 Enterococcus faecalis, 3 Enterococcus faecium, 1 Clostridium difficile) and Gram-negative strains (1 Escherichia coli, 1 Klebsiella pneumoniae, 1 Pseudomonas aeruginosa, 1 Acinetacter baumannii) with known features of antibiotic resistance (from wild-type susceptibility to multi-drug resistance). The Minimal Inhibitory Concentration (MIC) of test compounds was determined in duplicate by the microdilution method in 96-well microplates with a final volume of 100 μL per well and Mueller-Hinton broth as the growth medium, as recommended by the CLSI (Clinical and Laboratory Standards Institute, document Mo7-A10, USA).

Another assay deals with S. aureus ATCC700699. Kind of assay: MIC by microdilution, S. aureus ATCC700699. Type of assay: cell-based, Staphylococcus aureus. More on the design: unit not given here. The settings on record: S. aureus ATCC700699 (MecA positive, glycopeptide resistant), in duplicate. The method, then:
as §1, §2, §3

For the next assay, the system named is S. aureus ST20131365. Kind of assay: MIC by microdilution, S. aureus ST20131365. Format: cell-based, Staphylococcus aureus. The settings on record: S. aureus ST20131365 (MecA positive, glycopeptide resistant), in duplicate. The method, then: as §1, §2, §3
(In general: Dilution methods test growth across graded concentrations, often in twofold steps.)

Another assay concerns S. epidermidis ATCC14990. The assay can be described thus: MIC by microdilution, S. epidermidis ATCC14990. The settings on record: S. epidermidis ATCC14990 (MecA negative, wild-type), in duplicate. Type of assay: cell-based, Staphylococcus epidermidis. The method, then:
as §1, §2, §3

A further assay deals with S. epidermidis ATCC35984. Kind of assay: MIC by microdilution, S. epidermidis ATCC35984. Type of assay: cell-based, Staphylococcus epidermidis. The settings on record: S. epidermidis ATCC35984 (MecA positive), in duplicate. The method, then:
as §1, §2, §3

The test system of assay [1] is S. epidermidis ST20140436. Kind of assay: MIC by microdilution, S. epidermidis ST20140436. Format: cell-based, Staphylococcus epidermidis. The settings on record: S. epidermidis ST20140436 (MecA positive, glycopeptide resistant), in duplicate. The method, then: as §1, §2, §3
The next assay deals with E. faecalis JH2-2. The assay can be described thus: MIC by microdilution, E. faecalis JH2-2. Details: unit not given here. The settings on record: E. faecalis JH2-2 (wild-type), in duplicate. Format: cell-based, Enterococcus faecalis. The method, then: as §1, §2, §3
In a further assay the test system is E. faecalis UCN41. Kind of assay: MIC by microdilution, E. faecalis UCN41. Type of assay: cell-based, Enterococcus faecalis. Details: unit not given here. The settings on record: E. faecalis UCN41 (VanA positive, glycopeptide resistant), in duplicate. The method, then:
as §1, §2, §3

A further assay has as its system E. faecalis V583. The assay can be described thus: MIC by microdilution, E. faecalis V583. Format: cell-based, Enterococcus faecalis. The settings on record: E. faecalis V583 (VanB positive, glycopeptide resistant), in duplicate. The method, then: as §1, §2, §3
The next assay relates to E. faecium ATCC19434T. The assay can be described thus: MIC by microdilution, E. faecium ATCC19434T. Format: cell-based, Enterococcus faecium. Details: unit not given here. The settings on record: E. faecium ATCC19434T (wild-type), in duplicate. The method, then: as §1, §2, §3
The subject of the next assay is E. faecium BM4147. Kind of assay: MIC by microdilution, E. faecium BM4147. Format: cell-based, Enterococcus faecium. Details: unit not given here. The settings on record: E. faecium BM4147 (VanA positive, glycopeptide resistant), in duplicate. The method, then: as §1, §2, §3
The test system of a further assay is E. faecium AUS0004. The assay can be described thus: MIC by microdilution, E. faecium AUS0004. Type of assay: cell-based, Enterococcus faecium. The settings on record: E. faecium AUS0004 (VanB positive, glycopeptide resistant), in duplicate. The method, then:
as §1, §2, §3

Another assay concerns E. coli ATCC25922. Kind of assay: MIC by microdilution, E. coli ATCC25922. Format: cell-based, Escherichia coli. The settings on record: E. coli ATCC25922 (wild-type), in duplicate. The method, then:
as §1, §2, §3

In assay [2] the test system is Clostridium difficile ATCC700057. The assay can be described thus: MIC by microdilution, Clostridium difficile. Type of assay: cell-based. The settings on record: strain ATCC70057 [sic] (Tables 1-2) / ATCC700057 (Tables 3-10), in duplicate.
In assay [3] the test system is panel of Gram-positive and Gram-negative strains. Kind of assay: Antibacterial profile on the selected panel of strains. The settings on record: summary of Tables 1-12. Type of assay: cell-based. The method, then: as §1, §2, §3
Assay [4] has as its system S. epidermidis ST20150446. The assay can be described thus: MIC by microdilution, S. epidermidis ST20150446. Format: cell-based, Staphylococcus epidermidis. The settings on record: S. epidermidis ST20150446 (MecA positive, glycopeptide resistant), in duplicate. The method, then: as §1, §2, §3
The subject of a further assay is S. aureus ATCC29213. The assay can be described thus: MIC by microdilution, S. aureus ATCC29213. The settings on record: S. aureus ATCC29213 (MecA negative, wild-type), Mueller-Hinton broth, in duplicate. Format: cell-based, Staphylococcus aureus. The method, then: as §1, §2, §3

The structures appear in SMILES notation. Where “and” joins values, the source holds several entries; their conditions need not be identical. Identical values can stand only once.

For `CC[P+](CC)(CC)[Au-][c]1nn[nH]c1-c1cccc(C(=O)NC(C(=O)O)c2ccccc2)c1` (stereo not drawn) [TMB20], the “Minimal Inhibitory Concentration (MIC)” value in the assay with S. aureus ATCC25923 is 0.125; with S. aureus ATCC700699, 0.125; with S. aureus ST20131365, 0.125; in the assay with S. epidermidis ATCC14990, at most 0.06; in the assay with S. epidermidis ATCC35984, at most 0.06; in assay [1], at most 0.06. Further, the “Minimal Inhibitory Concentration (MIC)” value in the assay with E. faecalis JH2-2 is 0.25; in the assay with E. faecalis UCN41, 0.25; with E. faecalis V583, 0.25 and 0.5; with E. faecium ATCC19434T, 0.25; with E. faecium BM4147 it was 0.25 and 0.5; in the assay with E. faecium AUS0004 it was 0.25. In addition, the “Minimal Inhibitory Concentration (MIC)” value was above 8 with E. coli ATCC25922 and at most 0.06 in assay [2]. In assay [3], the “antimicrobial / antibacterial activity (in words)” value is given as “have antimicrobial activity”.

With `CC[P+](CC)(CC)[Au-][c]1nn[nH]c1CCC(=O)NC(C(=O)O)c1ccccc1` (stereo not drawn) [TMB21], the “Minimal Inhibitory Concentration (MIC)” value is 0.125 with S. aureus ATCC700699; 0.125 with S. aureus ST20131365; at most 0.06 with S. epidermidis ATCC14990; at most 0.06 with S. epidermidis ATCC35984; at most 0.06 in assay [1]; at most 0.06 in assay [4]. For the same compound, the “Minimal Inhibitory Concentration (MIC)” value in the assay on E. faecalis JH2-2 is 0.25; with E. faecalis UCN41 it was 0.25; in the assay with E. faecalis V583, 0.25 and 0.5; in the assay on E. faecium ATCC19434T, 0.25; in the assay on E. faecium BM4147, 0.25 and 0.5; in the assay on E. faecium AUS0004 it was 0.25. Moreover, the “Minimal Inhibitory Concentration (MIC)” value in the assay on E. coli ATCC25922 is reported as above 8; in [2], at most 0.06. For the same compound, the “antimicrobial / antibacterial activity (in words)” value in assay [3] was “have antimicrobial activity”.

With `CC[P+](CC)(CC)[Au-][c]1nn[nH]c1-c1cccc(C(=O)NC(C(=O)NC2C(=O)N3C2SC(C)(C)C3C(=O)O)c2ccccc2)c1` (stereo not drawn) [TMB12], the “Minimal Inhibitory Concentration (MIC)” value with S. aureus ATCC700699 is 0.125 and 0.25; with S. aureus ST20131365 it was 0.5; with S. epidermidis ATCC14990 it was at most 0.06; in the assay with S. epidermidis ATCC35984, at most 0.06; in [1], at most 0.06; in assay [4] it was at most 0.06. Further, the “Minimal Inhibitory Concentration (MIC)” value with E. faecalis JH2-2 is 0.5; in the assay on E. faecalis UCN41, 0.5 and 1; in the assay with E. faecalis V583, 1; in the assay on E. faecium ATCC19434T, 0.5; with E. faecium BM4147, 1; with E. faecium AUS0004 it was 0.5. Besides, the “Minimal Inhibitory Concentration (MIC)” value was above 8 in the assay on E. coli ATCC25922 and at most 0.06 in [2]. Besides, the “antimicrobial / antibacterial activity (in words)” value in [3] was “have antimicrobial activity”.

In the case of `CC[P+](CC)(CC)[Au-][c]1nn[nH]c1-c1c(C)noc1C` [TMB43], the “Minimal Inhibitory Concentration (MIC)” value with S. aureus ATCC25923 was at most 0.06; with S. aureus ATCC29213, 0.125; in the assay on S. aureus ATCC700699 it was 0.125; in the assay with S. aureus ST20131365 it was 0.125; with S. epidermidis ATCC14990, at most 0.06; with S. epidermidis ATCC35984 it was at most 0.06. In addition, the “Minimal Inhibitory Concentration (MIC)” value in assay [1] is 0.125; in assay [4], at most 0.06; in the assay with E. faecalis JH2-2, 0.25; in the assay on E. faecalis UCN41, 0.25; in the assay with E. faecalis V583, 0.25; with E. faecium ATCC19434T, 0.125. The “Minimal Inhibitory Concentration (MIC)” value amounted to 0.125 in the assay on E. faecium BM4147, 0.25 with E. faecium AUS0004 and 0.25 in [2]. Moreover, in [3], the “antimicrobial / antibacterial activity (in words)” value is listed as “have antimicrobial activity”.

Turning to `CC[P+](CC)(CC)[Au-][c]1nn[nH]c1CN1CCOCC1` [TMB32], the “Minimal Inhibitory Concentration (MIC)” value with S. aureus ATCC700699 was 0.125 and 0.25; in the assay with S. aureus ST20131365, 0.125; in the assay with S. epidermidis ATCC14990 it was at most 0.06; with S. epidermidis ATCC35984, at most 0.06; in [4], 0.125 and 0.25; in the assay on E. faecalis JH2-2, 0.125. Further, the “Minimal Inhibitory Concentration (MIC)” value in the assay with E. faecalis UCN41 is listed as 0.25; in the assay on E. faecalis V583, 0.25; with E. faecium ATCC19434T it was 0.25; with E. faecium BM4147 it was 0.25; in the assay on E. faecium AUS0004, 0.25; with E. coli ATCC25922, above 8. The “Minimal Inhibitory Concentration (MIC)” value in [2] was at most 0.06. The “antimicrobial / antibacterial activity (in words)” value in assay [3] is given as “have antimicrobial activity”.

Regarding `CC[P+](CC)(CC)[Au-][c]1nn[nH]c1CCS(N)(=O)=O` [TMB36], the “Minimal Inhibitory Concentration (MIC)” value is given as at most 0.06 in the assay on S. aureus ATCC25923; 0.125 with S. aureus ATCC700699; at most 0.06 in the assay with S. epidermidis ATCC14990; at most 0.06 in the assay on S. epidermidis ATCC35984; at most 0.06 in assay [1]; at most 0.06 in assay [4]. In addition, the “Minimal Inhibitory Concentration (MIC)” value worked out at 0.25 in the assay with E. faecalis JH2-2; 0.25 in the assay with E. faecalis UCN41; 0.5 in the assay with E. faecalis V583; 0.25 with E. faecium ATCC19434T; 0.5 in the assay with E. faecium BM4147; 0.25 in the assay on E. faecium AUS0004. In addition, the results for the “Minimal Inhibitory Concentration (MIC)” value (in the assay with E. coli ATCC25922; in [2]) were above 8 and at most 0.06, respectively. For the same compound, in assay [3], the “antimicrobial / antibacterial activity (in words)” value is “have antimicrobial activity”.

For the origin of these results see patent US20210284668A1, “GOLD (I)-PHOSPHINE 1,2,3-TRIAZOLE DERIVATIVES WITH ANTIBIOTIC PROPERTIES” (Centre National de la Recherche Scientifique, priority 2018, published 2021).
